Assay results reported in patent US10155798B2, “Anti-obesity compounds derived from neuromedin U” (The Regents of the University of California, priority 2013, dated 2018).
Where a SMILES comes first, the peptide text is derived from it. [ ]: non-standard residue; d: D form. The star is where a group is joined. PEG12 = NCCOCCOCCOCCOCCOCCOCCOCCOCCOCCOCCOCCOCCC(=O)O; Oic = O=C(O)[C@@H]1C[C@@H]2CCCC[C@@H]2N1; Palmitoyl = CCCCCCCCCCCCCCCC(=O)*; Aib = CC(C)(N)C(=O)O; Ahx = NCCCCCC(=O)O

Assays:
[1] = molecular target: T1, NMUR2 (neuromedin U 2 receptor) (Homo sapiens, UniProt Q9GZQ4); assay: Calcium mobilization assay, HEK-NMU2 cells; type: cell-based; conditions: HEK293 cells expressing NMU2 receptor, NA = not active
T1 construct: expressed in transfected cells; host or cells: HEK293 (HEK-NMU2)
Protocol: To test whether neuromedin U can be modified/derivatized to yield truncated bioactive compound(s) that may be useful as therapeutics, we synthesized a small library (25 peptides) of hNMU analogs utilizing various stabilization protocols, including: cyclization, lipidation, introduction of α,α-disubstituted and N-methylated amino acids, retro-inverso-approach, and combination of such (see Table 1). Subsequently all analogues were tested against human neuromedin U receptors (NMUR1 and NMUR2) in calcium mobilization assay (collaboration with Dr Gary Willars, University of Leicester, UK).
HEK293 cells expressing either the neuromedin U 1 receptor or neuromedin U 2 receptor (HEK-NMU1 and HEK-NMU2 respectively) were grown to approximately 90% confluence in ELISA strip plates (96-well format) pre-coated with poly-D-lysine (0.1% w/v) and loaded for 45 min at 37° C. with 2 iM fluo-4-AM in Krebs'-HEPES buffer with bovine serum albumin (KHB-BSA; composition: 10 mM HEPES; 4.2 mM NaHCO3; 11.7 mM D-glucose; 1.18 mM MgSO4.7H2O; 1.18 mM KH2PO4; 4.69 mM KCl; 118 mM NaCl; 1.3 mM CaCl2.2H2O; 0.1% (w/v) BSA; pH 7.4). Monolayers were then washed and equilibrated for 5 min at 37° C. in 100 il KHB-BSA for subsequent recording of fluorescence as an index of intracellular [Ca^2+] ([Ca^2+]i) using a microplate reader (NOVOstar; BMG LABTECH, Aylesbury, U.K.). Briefly, 20 μl of KHB-BSA, with or without ligand, was added into the well (200 μl/s) and fluorescence determined at 0.5 s intervals by excitation at 485 nm and collection of emitted light at 520 nm. Changes in fluorescence above basal levels (before ligand addition) were determined. […] Fmax was obtained by removal of buffer and addition of KHB-BSA buffer containing 4 mM [Ca^2+] and ionomycin (2 μM) to representative wells and the fluorescence measured for 10 min. Fmin was then derived by replacing buffer with Ca^2+-free KHB-BSA buffer containing 2 mM EGTA and fluorescence measured for 10 min. For the determination of concentration-response relationships, the maximal change in [Ca^2+]i was calculated following ligand addition. Concentration-response curves were then fitted using a four-parameter logistic equation to determine EC50 values (GraphPad Software Inc., Calif.).

[2] = system: diet induced obese (DIO) mouse model; assay: Single dose in vivo anorectic experiments in DIO mouse model; conditions: DIO mice; for anorectic activity, single dose: single dose 5344 nMole/kg, FIG. 3A
From the text: FIG. 3. Single dose in vivo experiments performed in DIO mouse model. (A) Comparison of anorectic effects of NM4 and NM7. (B) NM4 dose response experiments. (C) Comparison of NM4 and NM4A anorectic activity.
Initially we focused on single dose experiments comparing NM4 and NM7 at 5344 nMole/kg dose (FIG. 3).

[3] = cited from earlier work

T1 sequence (Q9GZQ4 whole entry): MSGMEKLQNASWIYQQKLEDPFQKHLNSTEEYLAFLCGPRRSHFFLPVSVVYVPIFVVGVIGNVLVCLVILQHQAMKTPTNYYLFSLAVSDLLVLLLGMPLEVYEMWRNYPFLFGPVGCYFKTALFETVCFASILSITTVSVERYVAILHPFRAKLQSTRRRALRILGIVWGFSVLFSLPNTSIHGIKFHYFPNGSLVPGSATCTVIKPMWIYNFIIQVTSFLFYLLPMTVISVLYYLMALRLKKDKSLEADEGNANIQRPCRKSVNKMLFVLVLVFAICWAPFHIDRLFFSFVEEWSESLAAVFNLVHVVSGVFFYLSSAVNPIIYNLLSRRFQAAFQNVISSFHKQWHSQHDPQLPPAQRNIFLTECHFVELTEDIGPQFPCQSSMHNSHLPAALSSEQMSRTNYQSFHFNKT

| Compound | EC50 [1] | also measured |
| --- | --- | --- |
| CC(=O)N[C@@H](Cc1ccccc1)C(=O)N[C@@H](CC(C)C)C(=O)N[C@@H](Cc1ccccc1)C(=O)N[C@@H](CCCNC(=N)N)C(=O)N1CCC[C@H]1C(=O)N[C@@H](CCCNC(=N)N)C(=O)N[C@@H](CC(N)=O)C(N)=O [Peptide M1, Ac-FL-Phe-Arg-Pro-R-Asn] (Ac-FLFRPRN-NH2) | 0.6 ± 0.19 nM | – |
| CC(C)C[C@H](NC(=O)[C@H](Cc1ccccc1)NC(=O)C(C)(C)N)C(=O)N[C@@H](Cc1ccccc1)C(=O)N[C@@H](CCCNC(=N)N)C(=O)N1CCC[C@H]1C(=O)N[C@@H](CCCNC(=N)N)C(=O)N[C@@H](CC(N)=O)C(=O)NC(C)(C)C(N)=O [Peptide M5, Aib-FL-Phe-Arg-Pro-R-Asn-Aib] (H-[Aib]FLFRPRN[Aib]-NH2) | 50.1 ± 16.2 nM | – |
| CCCCCCCCCCCCCCCC(=O)NCCOCCOCCOCCOCCOCCOCCOCCOCCOCCOCCOCCOCCC(=O)NC(C)(C)C(=O)N[C@@H](Cc1ccccc1)C(=O)N[C@@H](CC(C)C)C(=O)N[C@@H](Cc1ccccc1)C(=O)N[C@@H](CCCNC(=N)N)C(=O)N1CCC[C@H]1C(=O)N[C@@H](CCCNC(=N)N)C(=O)N[C@@H](CC(N)=O)C(=O)NC(C)(C)C(N)=O [Peptide M7, Pal-dPEG12-Aib-FL-Phe-Arg-Pro-R-Asn-Aib] ({Palmitoyl-PEG12}-[Aib]FLFRPRN[Aib]-NH2; N-terminus and C-terminus assumed) | – | anorectic activity, single dose [2]: very limited activity in vivo |
| CC(C)C[C@H](NC(=O)[C@H](Cc1ccccc1)NC(=O)[C@H](Cc1ccc(O)cc1)NC(=O)CNC(=O)[C@H](CCCNC(=N)N)NC(=O)[C@H](CO)NC(=O)[C@H](CCC(N)=O)NC(=O)[C@H](CO)NC(=O)[C@H](C)NC(=O)[C@H](Cc1ccccc1)NC(=O)[C@@H]1CCCN1C(=O)[C@H](CO)NC(=O)[C@H](CCC(N)=O)NC(=O)[C@H](Cc1ccccc1)NC(=O)[C@H](CCC(=O)O)NC(=O)[C@H](CCC(=O)O)NC(=O)[C@H](CC(=O)O)NC(=O)[C@@H](NC(=O)[C@H](CCCNC(=N)N)NC(=O)[C@@H](N)Cc1ccccc1)C(C)C)C(=O)N[C@@H](Cc1ccccc1)C(=O)N[C@@H](CCCNC(=N)N)C(=O)N1CCC[C@H]1C(=O)N[C@@H](CCCNC(=N)N)C(=O)N[C@@H](CC(N)=O)C(N)=O [hNMU, FRVDEEFQSPFASQSRGY-FL-Phe-Arg-Pro-R-Asn, reference compound] (H-FRVDEEFQSPFASQSRGYFLFRPRN-NH2) | 0.49 ± 0.13 nM | – |
| Neuromedin U (FRVDEEFQSPFASQSRGYFLFRPRN) [NMU] | – | half-life after subcutaneous (sc) injection ([3]; subcutaneous injection): less than 5 min |
| semaglutide | – | plasma half-life ([3]; in vivo): 160 h |

Now from value to compound, other results behind:

| EC50 [1] | Compound | also measured |
| --- | --- | --- |
| 708 ± 171 nM | CC(C)C[C@H](NC(=O)[C@H](Cc1ccccc1)NC(=O)CCCCCNC(=O)[C@@H](N)CS)C(=O)N[C@@H](Cc1ccccc1)C(=O)N[C@@H](CCCNC(=N)N)C(=O)N1[C@H](C(=O)N[C@@H](CCCNC(=N)N)C(=O)N[C@@H](CC(N)=O)C(=O)NCCCCCC(=O)N[C@@H](CS)C(N)=O)C[C@@H]2CCCC[C@@H]21 [NM9, C-Ahx-FL-Phe-Arg-Oic-R-Asn-Ahx-C] (H-C[Ahx]FLFR[Oic]RN[Ahx]C-NH2) | – |
| 0.21 ± 0.07 nM | CC(C)C[C@H](NC(=O)[C@H](Cc1ccccc1)NC(=O)C(C)(C)N)C(=O)N[C@@H](Cc1ccccc1)C(=O)N[C@@H](CCCNC(=N)N)C(=O)N1CCC[C@H]1C(=O)N[C@@H](CCCNC(=N)N)C(=O)N[C@@H](CC(N)=O)C(N)=O [Peptide M2, Aib-FL-Phe-Arg-Pro-R-Asn] (H-[Aib]FLFRPRN-NH2) | – |
| 170 ± 34.9 nM | CCCCCCCCCCCCCCCC(=O)NC(C)(C)C(=O)N[C@@H](Cc1ccccc1)C(=O)N[C@@H](CC(C)C)C(=O)N[C@@H](Cc1ccccc1)C(=O)N[C@@H](CCCNC(=N)N)C(=O)N1CCC[C@H]1C(=O)N[C@@H](CCCNC(=N)N)C(=O)N[C@@H](CC(N)=O)C(N)=O [Peptide M3, Pal-Aib-FL-Phe-Arg-Pro-R-Asn] (Palmitoyl-[Aib]FLFRPRN-NH2) | – |
| 1.7 ± 0.29 nM | CCCCCCCCCCCCCCCC(=O)NCCOCCOCCOCCOCCOCCOCCOCCOCCOCCOCCOCCOCCC(=O)NC(C)(C)C(=O)N[C@@H](Cc1ccccc1)C(=O)N[C@@H](CC(C)C)C(=O)N[C@@H](Cc1ccccc1)C(=O)N[C@@H](CCCNC(=N)N)C(=O)N1CCC[C@H]1C(=O)N[C@@H](CCCNC(=N)N)C(=O)N[C@@H](CC(N)=O)C(N)=O [Peptide M4, Pal-dPEG12-Aib-FL-Phe-Arg-Pro-R-Asn] ({Palmitoyl-PEG12}-[Aib]FLFRPRN-NH2) | anorectic activity, single dose [2]: significant anorectic activity; dose dependence of anorectic effects ([2]; single dose, FIG. 3B): dose-dependent |
| 240 ± 35.7 nM | CC(C)C[C@H](NC(=O)[C@H](Cc1ccccc1)NC(=O)CCCCCNC(=O)[C@@H](N)CS)C(=O)N[C@@H](Cc1ccccc1)C(=O)N[C@@H](CCCNC(=N)N)C(=O)N1CCC[C@H]1C(=O)N[C@@H](CCCNC(=N)N)C(=O)N[C@@H](CC(N)=O)C(=O)NCCCCCC(=O)N[C@@H](CS)C(N)=O [Peptide M8, C-Ahx-FL-Phe-Arg-Pro-R-Asn-Ahx-C] (H-C[Ahx]FLFRPRN[Ahx]C-NH2) | – |
